The record followed here is patent US8748426B2, “Inhibitors of diacylglycerol acyl transferase” (Piramal Enterprises Limited, priority 2009, dated 2014).

SMILES strings stand for the structures. Bounds are passed on as bounds.

The target in the first assay is T1, hDGAT1 (Homo sapiens, UniProt O75907).
T1 sequence (O75907 1-488): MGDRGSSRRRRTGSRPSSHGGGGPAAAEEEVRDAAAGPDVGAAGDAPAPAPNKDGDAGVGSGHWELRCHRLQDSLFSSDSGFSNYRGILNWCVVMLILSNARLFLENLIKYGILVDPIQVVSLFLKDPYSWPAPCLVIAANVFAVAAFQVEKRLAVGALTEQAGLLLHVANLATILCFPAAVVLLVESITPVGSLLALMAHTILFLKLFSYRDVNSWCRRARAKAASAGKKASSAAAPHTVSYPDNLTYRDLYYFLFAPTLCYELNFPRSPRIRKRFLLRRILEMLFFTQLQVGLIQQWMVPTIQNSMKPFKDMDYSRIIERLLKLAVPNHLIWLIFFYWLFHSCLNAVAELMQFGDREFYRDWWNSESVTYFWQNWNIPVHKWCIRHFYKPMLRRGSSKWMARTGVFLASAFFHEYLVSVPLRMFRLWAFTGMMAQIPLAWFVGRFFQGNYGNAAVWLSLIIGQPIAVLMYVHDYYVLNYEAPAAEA
The assay can be described thus: In-vitro DGAT1 assay (14C oleoyl CoA, hDGAT1 microsomes from Sf9 cells). The note with it: at 1 μM.
In the case of `O=C(Nc1ccc(-c2ccc3c(c2)C(=O)N([C@H]2CC[C@H](C(=O)O)CC2)C3)cc1)c1ccc(Cl)cc1` [Example 561, (1r,4r)-4-(6-(4-(4-Chlorobenzamido)phenyl)-1-oxoisoindolin-2-yl)cyclohexane carboxylic acid], the “% Inhibition of hDGAT1” value is given as “+ (10-50% Inhibition)”.

Consider `O=C(Nc1ccc(-c2ccc3c(c2)C(=O)N(C2(C(=O)O)CC2)C3)cc1)c1ccc(-c2ccccc2)cc1` [Example 586, 1-(6-(4-([1,1′-Biphenyl]-4-ylcarboxamido)phenyl)-1-oxoisoindolin-2-yl)cyclopropanecarboxylic acid], for which the “% Inhibition of hDGAT1” value is “++ (>50% Inhibition)”.

Consider `CC(C)[C@H](C(=O)O)N1Cc2ccc(-c3ccc(NC(=O)c4ccc(-c5ccccc5)cc4)cc3)cc2C1=O` [Example 541, (R)-2-(6-(4-([1,1′-Biphenyl]-4-ylcarboxamido)phenyl)-1-oxoisoindolin-2-yl)-3-methylbutanoic acid], for which the “% Inhibition of hDGAT1” value is reported as “++ (>50% Inhibition)”.

For the compound `Cc1ccc(NC(=O)Nc2ccc(-c3ccc4c(c3)C(=O)N([C@H](C(=O)O)C(C)C)C4)cc2)cc1` [Example 24], the “% Inhibition of hDGAT1” value was “+ (10-50% Inhibition)”.

Consider `Cc1ccc(C(=O)Nc2ccc(-c3ccc4c(c3)C(=O)N(C35C[C@@H]6C[C@@H](CC(C(=O)O)(C6)C3)C5)C4)cc2)cc1` [Example 572, (1r,3s,5R,7S)-3-(6-(4-(4-Methylbenzamido)phenyl)-1-oxoisoindolin-2-yl)adamantane-1-carboxylic acid], for which the “% Inhibition of hDGAT1” value is given as “++ (>50% Inhibition)”.

Still in this assay, the particulars now being: read-out: % Inhibition of hDGAT1.
Consider `CC(C)[C@@H](C(=O)O)N1Cc2ccc(-c3ccc(NC(=O)c4ccc(Cl)cc4)cc3)cc2C1=O` [Example 114, (S)-2-(6-(4-(4-Chlorobenzamido)phenyl)-1-oxoisoindolin-2-yl)-3-methylbutanoic acid], for which the inhibition at 1 µM is above 50%.

For the compound `Cc1cc(NC(=O)c2ccc(OC(F)(F)F)cc2)ccc1-c1ccc2c(c1)C(=O)N([C@H](C(=O)O)C(C)C)C2` [Example 476, (S)-3-Methyl-2-(6-(2-methyl-4-(4-(trifluoromethoxy)benzamido)phenyl)-1-oxoisoindolin-2-yl)butanoic acid], the inhibition at 1 µM is above 50%.

Turning to `COc1ccc(C(=O)Nc2ccc(-c3ccc4c(c3)C(=O)N([C@H](C(=O)O)C(C)C)C4)cc2)cc1OC` [Example 142, (S)-2-(6-(4-(3,4-Dimethoxybenzamido)phenyl)-1-oxoisoindolin-2-yl)-3-methyl butanoic acid], the inhibition at 1 µM lay in the range of 10 to 50%.

Turning to `CC(C)[C@@H](C(=O)O)N1Cc2ccc(-c3ccc(NC(=S)Nc4cccc(F)c4)cc3)cc2C1=O` [Example 56, (S)-2-(6-(4-(3-(3-Fluorophenyl)thioureido)phenyl)-1-oxoisoindolin-2-yl)-3-methylbutanoic acid], the inhibition at 1 µM is 10 to 50%.

On to `CC(C)[C@@H](C(=O)O)N1Cc2cc(-c3ccc(NS(=O)(=O)Cc4ccccc4)cc3)ccc2C1=O` [Example 301, (S)-3-Methyl-2-(1-oxo-5-(4-(phenylmethylsulfonamido)phenyl)isoindolin-2-yl)butanoic acid], for which the inhibition at 1 µM fell in the range of 10 to 50%.

With `COc1ccc(S(=O)(=O)Nc2ccc(-c3ccc4c(c3)C(=O)N([C@H](C(=O)O)C(C)C)C4)cc2)cc1OC` [Example 86, (S)-2-(6-(4-(3,4-Dimethoxyphenylsulfonamido)phenyl)-1-oxoisoindolin-2-yl)-3-methylbutanoic acid], the inhibition at 1 µM is 10 to 50%.

Regarding `CC(C)[C@@H](C(=O)O)N1Cc2cc(-c3ccc(NC(=S)Nc4ccc(Cl)cc4)cc3)ccc2C1=O` [Example 265, (S)-2-(5-(4-(3-(4-Chlorophenyl)thioureido)phenyl)-1-oxoisoindolin-2-yl)-3-methylbutanoic acid], the inhibition at 1 µM fell in the range of 10 to 50%.

As to `CCCCCc1ccc(C(=O)Nc2ccc(-c3ccc4c(c3)C(=O)N([C@H](C(=O)O)C(C)C)C4)c(C)c2)cc1` [Example 474, (S)-3-Methyl-2-(6-(2-methyl-4-(4-pentylbenzamido)phenyl)-1-oxoisoindolin-2-yl)butanoic acid], the inhibition at 1 µM was above 50%.

For `CC(C)[C@@H](C(=O)O)N1Cc2ccc(-c3ccc(NC(=O)Nc4cccc(F)c4)cc3)cc2C1=O` [Example 14, (S)-2-(6-(4-(3-(3-Fluorophenyl)ureido)phenyl)-1-oxoisoindolin-2-yl)-3-methyl butanoic acid], the inhibition at 1 µM is 10 to 50%.

Turning to `Cc1cc(C)c(C(=O)Nc2ccc(-c3ccc4c(c3)C(=O)N([C@H](C(=O)O)C(C)C)C4)cc2)c(C)c1` [Example 154, (S)-3-Methyl-2-(1-oxo-6-(4-(2,4,6-trimethylbenzamido)phenyl)isoindolin-2-yl)butanoic acid], the inhibition at 1 µM was 10 to 50%.

On to `CCCCCc1ccc(C(=O)Nc2ccc(-c3ccc4c(c3)C(=O)N([C@H](C(=O)O)C(C)C)C4)c(Cl)c2)cc1` [Example 486, (S)-2-(6-(2-Chloro-4-(4-pentylbenzamido)phenyl)-1-oxoisoindolin-2-yl)-3-methylbutanoic acid], for which the inhibition at 1 µM was above 50%.

With `CC(C)[C@@H](C(=O)O)N1Cc2ccc(-c3ccc(NC(=O)c4cc(-c5ccc(C(F)(F)F)cc5)no4)cc3)cc2C1=O` [Example 620, (S)-3-Methyl-2-(1-oxo-6-(4-(3-(4-(trifluoromethyl)phenyl)isoxazole-5-carboxamido)phenyl)isoindolin-2-yl)butanoic acid], the inhibition at 1 µM is above 50%.

Consider `CC(C)[C@@H](C(=O)O)N1Cc2ccc(-c3ccc(NS(=O)(=O)c4ccc(C#N)cc4)cc3)cc2C1=O` [Example 80, (S)-2-(6-(4-(4-Cyanophenylsulfonamido)phenyl)-1-oxoisoindolin-2-yl)-3-methyl butanoic acid], for which the inhibition at 1 µM lay in the range of 10 to 50%.

`CC(C)[C@@H](C(=O)O)N1Cc2ccc(-c3ccc(NC(=O)c4ccc(C(F)(F)F)cc4F)cc3)cc2C1=O` [Example 192, (S)-2-(6-(4-(2-Fluoro-4-(trifluoromethyl)benzamido)phenyl)-1-oxoisoindolin-2-yl)-3-methylbutanoic acid]: the inhibition at 1 µM was above 50%.

For the compound `COc1cc(C(=O)Nc2ccc(-c3ccc4c(c3)C(=O)N([C@H](C(=O)O)C(C)C)C4)cc2)cc(OC)c1OC` [Example 144, (S)-3-Methyl-2-(1-oxo-6-(4-(3,4,5-trimethoxybenzamido)phenyl)isoindolin-2-yl)butanoic acid], the inhibition at 1 µM was above 50%.

`CC(C)[C@@H](C(=O)O)N1Cc2ccc(-c3ccc(NC(=O)c4ccc(Cl)cc4)cc3F)cc2C1=O` [Example 606, (S)-2-(6-(4-(4-Chlorobenzamido)-2-fluorophenyl)-1-oxoisoindolin-2-yl)-3-methyl butanoic acid]: the inhibition at 1 µM is 10 to 50%.

Turning to `CC(C)[C@@H](C(=O)O)N1Cc2ccc(-c3ccc(NS(=O)(=O)c4ccc(F)c(F)c4)cc3)cc2C1=O` [Example 82, (S)-2-(6-(4-(3,4-Difluorophenylsulfonamido)phenyl)-1-oxoisoindolin-2-yl)-3-methylbutanoic acid], the inhibition at 1 µM lay in the range of 10 to 50%.

As to `CC(C)[C@@H](C(=O)O)N1Cc2cc(-c3ccc(NC(=O)c4ccc(C(F)(F)F)cc4)cc3)ccc2C1=O` [Example 309, (S)-3-Methyl-2-(1-oxo-5-(4-(4-(trifluoromethyl)benzamido)phenyl)isoindolin-2-yl)butanoic acid], the inhibition at 1 µM lay within 10 to 50%.
